From patent publication US7291621B2, “Substituted biaryl amides C5a receptor modulators” (Neurogen Corporation, priority 2002, dated 2007)

Biological target: T1, C5a receptor (Homo sapiens, UniProt P21730)
T1 construct: endogenous in cells; host or cells: U937 cells differentiated with 1 mM dibutyryl cAMP
T1 sequence (P21730 1-350): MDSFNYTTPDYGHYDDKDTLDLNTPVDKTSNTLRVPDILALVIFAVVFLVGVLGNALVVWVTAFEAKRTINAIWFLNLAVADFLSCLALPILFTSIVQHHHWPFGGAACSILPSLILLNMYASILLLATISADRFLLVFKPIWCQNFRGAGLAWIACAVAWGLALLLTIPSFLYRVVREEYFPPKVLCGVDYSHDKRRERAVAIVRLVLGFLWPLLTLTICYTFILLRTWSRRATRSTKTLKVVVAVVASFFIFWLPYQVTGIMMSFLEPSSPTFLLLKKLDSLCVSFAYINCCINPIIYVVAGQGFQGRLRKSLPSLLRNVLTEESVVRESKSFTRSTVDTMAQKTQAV
Assay: standard assay of C5a receptor mediated calcium mobilization
Type: cell-based
Details: Table I; asterisk = tested in C5a receptor mediated calcium mobilization assay; read-out: Ca2+ Mob.
Procedure: U937 cells are grown in differentiation media (1 mM dibutyrl cAMP in RPMI 1640 medium containing 10% fetal bovine serum) for 48 hrs at 37° C. then reseeded onto 96-well plates suitable for use in a FLIPR™ Plate Reader (Molecular Devices Corp., Sunnyvale Calif.). Cells are grown an additional 24 hours (to 70-90% confluence) before the assay. The cells are then washed once with Krebs Ringer solution. FLUO-3 calcium sensitive dye (Molecular Probes, Inc. Eugene, Oreg.) is added to 10 μg/mL and incubated with the cells at room temperature for 1 to 2 hours. The 96 well plates are then washed to remove excess dye. Fluorescence responses, measured by excitation at 480 nm and emission at 530 nm, are monitored upon the addition of human C5a to the cells to a final concentration of 0.01-30.0 nM, using the FLIPR™ device (Molecular Devices).
The calcium mobilization assay described above may be readily adapted for identifying test compounds that have agonist or antagonist activity at the human C5a receptor.
For example, in order to identify antagonist compounds, differentiated U937 cells are washed and incubated with Fluo-3 dye as described above. One hour prior to measuring the fluorescence signal, a subset of the cells is incubated with 1 μM of at least one compound to be tested. The fluorescence response upon the subsequent addition of 0.3 nM (final concentration) human recombinant C5a is monitored using the FLIPR™ plate reader. Antagonist compounds elicit at least a 2-fold decrease in the fluorescence response relative to that measured in the presence of human C5a alone. Preferred antagonist compounds elicit at least a 5-fold, preferably at least a 10-fold, and more preferably at least a 20-fold decrease in the fluorescence response relative to that measured in the presence of human C5a alone.

Ki, < 1000 nM:
Cc1cccc(-c2ccccc2)c1C(=O)N(Cc1ccccc1)C1Cc2ccccc2C1 [compound 113, N-benzyl-N-(indan-2-yl)-3-methyl-1,1′-biphenyl-2-carboxamide]
Cc1ccc(-c2cccc(F)c2C(=O)N(Cc2ccccc2)C2Cc3ccccc3C2)s1 [compound 114, N-benzyl-N-(indan-2-yl)-2-fluoro-6-(5-methylthien-2-yl)benzamide]
Cc1ccc(-c2cccc(C)c2C(=O)N(Cc2ccccc2)C2Cc3ccccc3C2)s1 [compound 115, N-benzyl-N-(indan-2-yl)-2-methyl-6-(5-methylthien-2-yl)benzamide]
Cc1ccc(-c2ccccc2)c(C(=O)N(Cc2ccccc2)C2Cc3ccccc3C2)c1 [compound 116, N-benzyl-N-(indan-2-yl)-4-methyl-1,1′-biphenyl-2-carboxamide]
O=C(c1cc(Cl)ccc1-c1ccccc1)N(Cc1ccccc1)C1Cc2ccccc2C1 [compound 117, N-benzyl-4-chloro-N-(indan-2-yl)-1,1′-biphenyl-2-carboxamide]
Cc1ccc(-c2ccsc2)c(C(=O)N(Cc2ccccc2)C2Cc3ccccc3C2)c1 [compound 118, N-benzyl-N-(indan-2-yl)-5-methyl-2-thien-3-ylbenzamide]
O=C(c1cc(Cl)ccc1-c1ccsc1)N(Cc1ccccc1)C1Cc2ccccc2C1 [compound 119, N-benzyl-5-chloro-N-(indan-2-yl)-2-thien-3-ylbenzamide]
Cc1ccccc1CN(C(=O)c1c(C)cccc1-c1ccccc1)C1Cc2ccccc2C1 [compound 120, N-(indan-2-yl)-3-methyl-N-(2-methylbenzyl)-1,1′-biphenyl-2-carboxamide]
Cc1cccc(CN(C(=O)c2c(C)cccc2-c2ccccc2)C2Cc3ccccc3C2)c1 [compound 121, N-(indan-2-yl)-3-methyl-N-(3-methylbenzyl)-1,1′-biphenyl-2-carboxamide]
Cc1ccc(CN(C(=O)c2c(C)cccc2-c2ccccc2)C2Cc3ccccc3C2)cc1 [compound 122, N-(indan-2-yl)-3-methyl-N-(4-methylbenzyl)-1,1′-biphenyl-2-carboxamide]
Cc1cccc(-c2ccccc2)c1C(=O)N(Cc1ccccc1F)C1Cc2ccccc2C1 [compound 123, N-(indan-2-yl)-N-(2-fluorobenzyl)-3-methyl-1,1′-biphenyl-2-carboxamide]
Cc1cccc(-c2ccccc2)c1C(=O)N(Cc1cccc(F)c1)C1Cc2ccccc2C1 [compound 124, N-(indan-2-yl)-N-(3-fluorobenzyl)-3-methyl-1,1′-biphenyl-2-carboxamide]
Cc1cccc(-c2ccccc2)c1C(=O)N(Cc1ccc(F)cc1)C1Cc2ccccc2C1 [compound 125, N-(indan-2-yl)-N-(4-fluorobenzyl)-3-methyl-1,1′-biphenyl-2-carboxamide]
Cc1cccc(-c2ccccc2)c1C(=O)N(Cc1ccc(F)c(F)c1)C1Cc2ccccc2C1 [compound 126, N-(3,4-difluorobenzyl)-N-(indan-2-yl)-3-methyl-1,1′-biphenyl-2-carboxamide]
COc1cccc(CN(C(=O)c2c(C)cccc2-c2ccccc2)C2Cc3ccccc3C2)c1 [compound 127, N-(indan-2-yl)-N-(3-methoxybenzyl)-3-methyl-1,1′-biphenyl-2-carboxamide]
COc1ccc(CN(C(=O)c2c(C)cccc2-c2ccccc2)C2Cc3ccccc3C2)cc1 [compound 128, N-(indan-2-yl)-N-(4-methoxybenzyl)-3-methyl-1,1′-biphenyl-2-carboxamide]
Cc1cccc(-c2ccccc2)c1C(=O)N(Cc1ccc2c(c1)OCO2)C1Cc2ccccc2C1 [compound 129, N-(1,3-benzodioxol-5-ylmethyl)-N-(indan-2-yl)-3-methyl-1,1′-biphenyl-2-carboxamide]
Cc1cccc(-c2ccccc2)c1C(=O)N(CCc1ccccc1)C1Cc2ccccc2C1 [compound 130, N-(indan-2-yl)-3-methyl-N-(2-phenylethyl)-1,1′-biphenyl-2-carboxamide]
Cc1ccccc1CN(C(=O)c1cc(Cl)ccc1-c1ccccc1)C1Cc2ccccc2C1 [compound 131, 4-chloro-N-(indan-2-yl)-N-(2-methylbenzyl)-1,1′-biphenyl-2-carboxamide]
Cc1cccc(CN(C(=O)c2cc(Cl)ccc2-c2ccccc2)C2Cc3ccccc3C2)c1 [compound 132, 4-chloro-N-(indan-2-yl)-N-(3-methylbenzyl)-1,1′-biphenyl-2-carboxamide]
O=C(c1cc(Cl)ccc1-c1ccccc1)N(Cc1ccccc1F)C1Cc2ccccc2C1 [compound 134, 4-chloro-N-(indan-2-yl)-N-(2-fluorobenzyl)-1,1′-biphenyl-2-carboxamide]
O=C(c1cc(Cl)ccc1-c1ccccc1)N(Cc1cccc(F)c1)C1Cc2ccccc2C1 [compound 135, 4-chloro-N-(indan-2-yl)-N-(3-fluorobenzyl)-1,1′-biphenyl-2-carboxamide]
O=C(c1cc(Cl)ccc1-c1ccccc1)N(Cc1ccc(F)cc1)C1Cc2ccccc2C1 [compound 136, 4-chloro-N-(indan-2-yl)-N-(4-fluorobenzyl)-1,1′-biphenyl-2-carboxamide]
O=C(c1cc(Cl)ccc1-c1ccccc1)N(Cc1ccc(F)c(F)c1)C1Cc2ccccc2C1 [compound 137, 4-chloro-N-(3,4-difluorobenzyl)-N-(indan-2-yl)-1,1′-biphenyl-2-carboxamide]
COc1ccc(CN(C(=O)c2cc(Cl)ccc2-c2ccccc2)C2Cc3ccccc3C2)cc1 [compound 138, 4-chloro-N-(indan-2-yl)-N-(4-methoxybenzyl)-1,1′-biphenyl-2-carboxamide]
O=C(c1cc(Cl)ccc1-c1ccccc1)N(Cc1ccc2c(c1)OCO2)C1Cc2ccccc2C1 [compound 139, N-(1,3-benzodioxol-5-ylmethyl)-4-chloro-N-(indan-2-yl)-1,1′-biphenyl-2-carboxamide]
COc1cccc(CN(C(=O)c2cc(Cl)ccc2-c2ccccc2)C2Cc3ccccc3C2)c1 [compound 140, 4-chloro-N-(indan-2-yl)-N-(3-methoxybenzyl)-1,1′-biphenyl-2-carboxamide]
O=C(c1cc(Cl)ccc1-c1ccccc1)N(CCc1ccccc1)C1Cc2ccccc2C1 [compound 141, 4-chloro-N-(indan-2-yl)-N-(2-phenylethyl)-1,1′-biphenyl-2-carboxamide]
Cc1cc(CN(Cc2ccccc2)C(=O)c2cc(Cl)ccc2-c2ccccc2)cc(C)c1O [compound 142, N-benzyl-4-chloro-N-(4-hydroxy-3,5-dimethylbenzyl)-1,1′-biphenyl-2-carboxamide]
O=C(c1cc(Cl)ccc1-c1ccccc1)N(Cc1ccccc1)Cc1ccc2c(c1)OCC2 [compound 144, N-benzyl-4-chloro-N-(2,3-dihydro-1-benzofuran-6-ylmethyl)-1,1′-biphenyl-2-carboxamide]
COc1cccc(CN(CCc2ccccc2)C(=O)c2cc(Cl)ccc2-c2ccccc2)c1 [compound 145, 4-chloro-N-(3-methoxybenzyl)-N-(2-phenylethyl)-1,1′-biphenyl-2-carboxamide]
O=C(c1cc(Cl)ccc1-c1ccccc1)N(Cc1ccccc1)Cc1cccc2ccccc12 [compound 146, N-benzyl-4-chloro-N-(1-naphthylmethyl)-1,1′-biphenyl-2-carboxamide]
Cc1ccc(-c2ccccc2C(=O)N(Cc2ccccc2)Cc2cc(C)c(O)c(C)c2)s1 [compound 147, N-benzyl-N-(4-hydroxy-3,5-dimethylbenzyl)-2-(5-methylthien-2-yl)benzamide]
Cc1ccc(-c2ccccc2C(=O)N(Cc2ccccc2)Cc2ccc(OC(F)F)cc2)s1 [compound 148, N-benzyl-N-[4-(difluoromethoxy)benzyl]-2-(5-methylthien-2-yl)benzamide]
Cc1ccc(-c2ccccc2C(=O)N(Cc2ccccc2)Cc2ccc(O)cc2Cl)s1 [compound 149, N-benzyl-N-(2-chloro-4-hydroxybenzyl)-2-(5-methylthien-2-yl)benzamide]
Cc1cc(CN(Cc2ccccc2)C(=O)c2ccccc2-c2ccccc2)cc(C)c1O [compound 150, N-benzyl-N-(4-hydroxy-3,5-dimethylbenzyl)-1,1′-biphenyl-2-carboxamide]
